Test results as given in patent publication US7863449B2, “Modulators of muscarinic receptors” (Vertex Pharmaceuticals Incorporated, priority 2004, dated 2011).

Experiments:
M4 muscarinic receptor = target: T1, M4 muscarinic receptor (Homo sapiens, UniProt P08173); test: Functional mobilization of intracellular calcium (FLIPR), M4-CHO cells; type: cell-based; conditions: for Emax: 100% efficacy is the maximum response obtained using Carbachol as a control; for M4 Activity: M4-CHO cells, FLIPR calcium mobilization
T1 construct: expressed in transfected cells; host or cells: CHO (M4-CHO)
T1 sequence (P08173 1-479): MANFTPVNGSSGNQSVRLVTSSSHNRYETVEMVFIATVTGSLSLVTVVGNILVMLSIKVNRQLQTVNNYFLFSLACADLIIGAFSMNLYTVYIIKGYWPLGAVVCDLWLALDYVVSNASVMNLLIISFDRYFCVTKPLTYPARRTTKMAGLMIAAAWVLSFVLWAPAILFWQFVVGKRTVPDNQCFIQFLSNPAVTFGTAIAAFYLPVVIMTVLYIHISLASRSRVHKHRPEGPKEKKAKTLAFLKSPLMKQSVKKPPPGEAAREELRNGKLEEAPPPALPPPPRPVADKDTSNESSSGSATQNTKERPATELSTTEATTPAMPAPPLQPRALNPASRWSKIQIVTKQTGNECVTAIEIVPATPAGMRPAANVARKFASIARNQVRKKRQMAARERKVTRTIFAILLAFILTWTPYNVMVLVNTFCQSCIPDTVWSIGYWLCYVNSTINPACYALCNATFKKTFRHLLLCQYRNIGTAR
Protocol: (§1) Functional Mobilization of Intracellular Calcium to Determine Muscarinic Receptor Activity:
(§2) CHO cells expressing muscarinic receptors (M1 to M5) are grown as monolayers in tissue culture flasks at 37° C. in a humidified atmosphere containing 5% CO2 and passaged every 3-5 days. The growth media is Dulbecco's modified eagles medium (DMEM, Gibco Cat# 12430-054), containing 25 mM Hepes and supplemented with Fetal Bovine Serum (Hyclone, cat# SH30071.03), 0.1 mM of MEM non-essential amino acids (GIBCO, Cat# 11140-050), 1 mM MEM Sodium Pyruvate (GIBCO Cat# 11360-070) and 100 units/ml of Penicillin G and 100 μg/ml of Streptomycin (GIBCO Cat# 15140-122). The recombinant muscarinic receptor cell lines are grown under antibiotic pressure with media containing 25 μg/ml zeocin and 500 μg/ml G418 (M1-CHO), 4 μg/ml puromycin, 50 μg/ml zeocin and 2.5 μg/ml blasticidin (M2 and M4-CHO) or 50 μg/ml zeocin and 4 μg/ml puromycin (M3 and M5-CHO).
(§3) Cells are harvested at 80-90% confluence using Versene (GIBCO Cat# 15040-066), collected by centrifugation and seeded 18-24 hrs prior to running the calcium assay at a density of 5,000-10,000 cells/well in […], clear-bottomed 384-well plates (BD Biocoat, poly-D-lysine, Cat#356663). The day of the experiment, the cells are washed with a plate washer (Bioteck Instruments, ELX 405) using bath1 buffer (140-mM NaCl, 4.5-mM KCl, 2-mM CaCl2, 1-mM MgCl2, 10-mM Hepes-Na, 10-mM Glucose, pH 7.4, with NaOH) containing 1 mM Probenecid. Next, the calcium dye Fluo-3 (25 μl/well of Fluo-3 AM at 4 μM, Molecular Probes F-1241, in Bath 1 buffer containing 1 mM Probenecid) is added to the 25 μl of Bath 1 remaining in each well after the plate wash and the dye is loaded at 37° C. in the tissue culture incubator for 60-90 min. The fluorescent dye is removed using the plate washer with Bath 1 containing 1 mM Probenecid, leaving 25 μl/well of this solution after the wash. Alternatively, cells can be loaded with the calcium indicator from Molecular Devices (Calcium 3 Assay Reagents, Cat # R7181) adding 5 μl of a 5× solution dye in Bath 1 containing 1 mM Probenecid (10 ml per dye flask cat# R7182 to generate a solution 20×) to 20 μl of the same buffer. After loading for 60 min, the experiment can be run without having to remove the dye.
(§4) Compounds are prepared at a 2× fold concentration in a 96-well plate (round bottom, Costar Corning cat# 3656), by reconstituting the pre-spotted compounds in bath 1 containing 1 mM probenecid. The final concentration DMSO is 0.5%, and the amount of DMSO is normalized across the assay plate. To determine an agonist action of the compounds on muscarinic receptors, the reconstituted compounds are added (25 μl compound/well) to the cell assay plate (containing 25 μl/well) using the multi-channel robotic system of the FLIPR 3 Instrument (Molecular Devices, Sunnyvale, Calif.). To determine a functional inhibitory action of the compounds on muscarinic receptors, the reconstituted compounds are added (25 μl compound/well) to the assay plate and pre-incubated for 15 min prior to adding 25 μl of Carbachol at 3× the EC80 for each muscarinic subtype. Alternatively, the compounds can be co-applied simultaneously with the agonist. In both assay modes, the fluorescence is recorded for 60 sec (excitation wavelength is […] and emission wavelength 540 nm) using the FLIPR 3 instrument.
(§5) The potency, efficacy and selectivity of the muscarinic compounds were evaluated by screening the compound activity across the whole family (M1 to M5 cells). Compounds were also screened for activity on other proteins such as other GPCRs and ion channels to determine selectivity on M4 receptors.

M1 muscarinic receptor = target: T2, M1 muscarinic receptor (Homo sapiens, UniProt P11229); test: Functional mobilization of intracellular calcium (FLIPR), M1-CHO cells; type: cell-based; conditions: for Emax: 100% efficacy is the maximum response obtained using Carbachol as a control; for M1 Activity: M1-CHO cells, FLIPR calcium mobilization
T2 construct: expressed in transfected cells; host or cells: CHO (M1-CHO)
T2 sequence (P11229 1-460): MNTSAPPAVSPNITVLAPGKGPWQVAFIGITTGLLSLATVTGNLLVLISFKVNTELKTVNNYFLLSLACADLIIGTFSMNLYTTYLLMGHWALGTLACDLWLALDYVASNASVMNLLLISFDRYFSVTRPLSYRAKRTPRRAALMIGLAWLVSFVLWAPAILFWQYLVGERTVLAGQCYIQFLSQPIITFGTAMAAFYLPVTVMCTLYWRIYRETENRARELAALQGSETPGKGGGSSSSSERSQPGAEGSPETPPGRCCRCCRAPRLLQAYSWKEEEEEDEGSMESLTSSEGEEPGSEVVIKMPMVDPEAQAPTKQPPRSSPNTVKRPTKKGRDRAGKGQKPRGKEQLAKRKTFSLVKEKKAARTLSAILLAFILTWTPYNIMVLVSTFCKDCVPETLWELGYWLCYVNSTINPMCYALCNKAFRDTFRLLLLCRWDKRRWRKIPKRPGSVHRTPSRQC
Protocol: as §1, §2, §3, §4, §5

SMILES	Emax (M4 muscarinic receptor) [%]	M4 Activity (M4 muscarinic receptor)	Emax (M1 muscarinic receptor) [%]	M1 Activity (M1 muscarinic receptor)
CC(=O)N1Cc2ccccc2C2(CCN(Cc3sc(C)nc3C)CC2)C1 [compound 301]	< 25	+ (activity was measured to be greater than 5.0 μM)	< 25	+ (activity was measured to be greater than 5.0 μM)
O=C(OC1CCC1)N1Cc2ccccc2C2(CCN(C3CC4CCC(C3)N4C(=O)O[C@H]3CCOC3)CC2)C1 (stereo partly shown) [compound 95]	25 to 100	+++ (activity was measured to be less than 1.0 μM)	25 to 100	+++ (activity was measured to be less than 1.0 μM)
C#CCOC(=O)N1C2CCC1CC(N1CCC3(CC1)CN(C(C)=O)Cc1ccccc13)C2 (stereo not shown) [compound 156]	25 to 100	+++ (activity was measured to be less than 1.0 μM)	25 to 100	+++ (activity was measured to be less than 1.0 μM)
CCC(=O)CN1CCC2(CC1)CN(C(C)=O)Cc1ccccc12 [compound 187]	< 25	+ (activity was measured to be greater than 5.0 μM)	< 25	+ (activity was measured to be greater than 5.0 μM)
CC(=O)N1Cc2ccccc2C2(CCN(Cc3cc(C)ccc3F)CC2)C1 [compound 331]	< 25	+ (activity was measured to be greater than 5.0 μM)	< 25	+ (activity was measured to be greater than 5.0 μM)
CC(=O)CN1CCC2(CC1)CN(C(C)=O)Cc1ccccc12 [compound 78]	25 to 100	+ (activity was measured to be greater than 5.0 μM)	25 to 100	+ (activity was measured to be greater than 5.0 μM)
CCCOC(=O)N1C2CCC1CC(N1CCC3(CC1)CN(S(=O)(=O)N(C)C)Cc1ccccc13)C2 (stereo not shown) [compound 125]	25 to 100	+++ (activity was measured to be less than 1.0 μM)	25 to 100	+++ (activity was measured to be less than 1.0 μM)
CCOC(=O)N1CCC(N2CCC3(CC2)CN(C(=O)OCCOC)Cc2ccccc23)CC1 [compound 23]	25 to 100	+++ (activity was measured to be less than 1.0 μM)	25 to 100	+++ (activity was measured to be less than 1.0 μM)
CC(=O)N1Cc2ccccc2C2(CCN(Cc3ccccc3C#N)CC2)C1 [compound 322]	< 25	+ (activity was measured to be greater than 5.0 μM)	< 25	+ (activity was measured to be greater than 5.0 μM)
CCOC(=O)N1CCC(CN2CCC3(CC2)CN(C(=O)N(C)C)Cc2ccccc23)CC1 [compound 288]	25 to 100	+++ (activity was measured to be less than 1.0 μM)	25 to 100	+++ (activity was measured to be less than 1.0 μM)
CCOC(=O)N1CCC(N2CCC3(CC2)CN(C(=O)OC(C)C)Cc2ccccc23)CC1 [compound 166]	25 to 100	+++ (activity was measured to be less than 1.0 μM)	25 to 100	+++ (activity was measured to be less than 1.0 μM)
CCOC(=O)N1C2CCC1CC(N1CCC3(CC1)CN(C(=O)C1(C(F)(F)F)CC1)Cc1ccccc13)C2 (stereo not shown) [compound 64]	25 to 100	+++ (activity was measured to be less than 1.0 μM)	25 to 100	+++ (activity was measured to be less than 1.0 μM)
CCOC(=O)N1CCC(N2CCC3(CC2)CN(C(=O)NC(C)C)Cc2ccccc23)CC1 [compound 104]	25 to 100	+++ (activity was measured to be less than 1.0 μM)	25 to 100	+++ (activity was measured to be less than 1.0 μM)
CCOC(=O)N1CCC(N2CCC3(CC2)CN(C(=O)C2CCCC2)Cc2ccccc23)CC1 [compound 10]	< 25	++ (activity was measured to be from 1.0 μM to 5.0 μM)	25 to 100	+++ (activity was measured to be less than 1.0 μM)
CCOC(=O)N1CCC(N2CCC3(CC2)CN(C(=O)c2cnon2)Cc2ccccc23)CC1 [compound 225]	25 to 100	+++ (activity was measured to be less than 1.0 μM)	25 to 100	+++ (activity was measured to be less than 1.0 μM)
CCOC(=O)N1C2CCC1CC(N1CCC3(CC1)CN(C(=O)c1snnc1C)Cc1ccccc13)C2 (stereo not shown) [compound 179]	25 to 100	+++ (activity was measured to be less than 1.0 μM)	25 to 100	+++ (activity was measured to be less than 1.0 μM)
CCOC(=O)N1CCC(N2CCC3(CC2)CN(C(=O)C2(C)CCCCC2)Cc2ccccc23)CC1 [compound 178]	< 25	+ (activity was measured to be greater than 5.0 μM)	25 to 100	+++ (activity was measured to be less than 1.0 μM)
CC(=O)N1Cc2ccccc2C2(CCN(C3CCN(C(=O)OC4CCC4)CC3)CC2)C1 [compound 258]	25 to 100	+++ (activity was measured to be less than 1.0 μM)	25 to 100	+++ (activity was measured to be less than 1.0 μM)
CCOC(=O)N1C2CCC1CC(N1CCC3(CC1)CN(C(=O)Nc1ccc(F)cc1)Cc1ccccc13)C2 (stereo not shown) [compound 132]	25 to 100	+++ (activity was measured to be less than 1.0 μM)	25 to 100	+++ (activity was measured to be less than 1.0 μM)
